# The source made the active and inactive calls. How the calls were made is not given here.
# System: CCRIS mutagenicity, Ames/micronucleus/aberration tests
# Experiment: CCRIS mutagenicity studies
# [1] = Test System: AMES SALMONELLA TYPHIMURIUM, Strain/Indicator: TA98, Metabolic Activation: NONE, Method: STANDARD PLATE
# [2] = Test System: AMES SALMONELLA TYPHIMURIUM, Strain/Indicator: TA100, Metabolic Activation: NONE, Method: STANDARD PLATE
# [3] = Test System: AMES SALMONELLA TYPHIMURIUM, Strain/Indicator: TA100, Metabolic Activation: RAT, LIVER, S-9, AROCLOR 1254, Method: STANDARD PLATE
# [4] = Test System: AMES SALMONELLA TYPHIMURIUM, Strain/Indicator: TA98, Metabolic Activation: NONE, Method: PREINCUBATION
# [5] = Test System: AMES SALMONELLA TYPHIMURIUM, Strain/Indicator: TA100, Metabolic Activation: NONE, Method: PREINCUBATION
# [6] = Test System: AMES SALMONELLA TYPHIMURIUM, Strain/Indicator: TA1535, Metabolic Activation: NONE, Method: PREINCUBATION
# [7] = Test System: AMES SALMONELLA TYPHIMURIUM, Strain/Indicator: TA1537, Metabolic Activation: NONE, Method: PREINCUBATION
smiles,measurement,setting,value
CCOC(=O)c1[nH]c2ccccc2c1N=Cc1ccc([N+](=O)[O-])cc1,mutagenic call,"Test System: AMES SALMONELLA TYPHIMURIUM, Strain/Indicator: TA97, Metabolic Activation: NONE, Method: STANDARD PLATE",inactive; negative
same,mutagenic call,"Test System: AMES SALMONELLA TYPHIMURIUM, Strain/Indicator: TA97, Metabolic Activation: RAT, LIVER, S-9, AROCLOR 1254, Method: STANDARD PLATE",inactive; negative
same,mutagenic call,[1],inactive; negative
same,mutagenic call,"Test System: AMES SALMONELLA TYPHIMURIUM, Strain/Indicator: TA98, Metabolic Activation: RAT, LIVER, S-9, AROCLOR 1254, Method: STANDARD PLATE",active; positive
same,mutagenic call,[2],inactive; negative
same,mutagenic call,[3],inactive; negative
same,mutagenic call,"Test System: AMES SALMONELLA TYPHIMURIUM, Strain/Indicator: TA102, Metabolic Activation: NONE, Method: STANDARD PLATE",inactive; negative
same,mutagenic call,"Test System: AMES SALMONELLA TYPHIMURIUM, Strain/Indicator: TA102, Metabolic Activation: RAT, LIVER, S-9, AROCLOR 1254, Method: STANDARD PLATE",inactive; negative
[Cu+2].[O-]c1cccc2cccnc12.[O-]c1cccc2cccnc12,mutagenic call,[1],inactive; negative
same,mutagenic call,"Test System: AMES SALMONELLA TYPHIMURIUM, Strain/Indicator: TA98, Metabolic Activation: RAT LIVER S-9, AROCLOR 1254, Method: STANDARD PLATE",inactive; negative
same,mutagenic call,[2],inactive; negative
same,mutagenic call,"Test System: AMES SALMONELLA TYPHIMURIUM, Strain/Indicator: TA100, Metabolic Activation: RAT LIVER S-9, AROCLOR 1254, Method: STANDARD PLATE",active; positive
CCOC(=O)CNC(=O)CBr,mutagenic call,"Test System: AMES SALMONELLA TYPHIMURIUM, Strain/Indicator: TA100, Metabolic Activation: MOUSE, LIVER, S-9, AROCLOR 1254, Method: STANDARD PLATE",inactive; negative
same,mutagenic call,[2],inactive; negative
CN(c1nccc(=O)[nH]1)C1CCN(c2nc3ccccc3n2Cc2ccc(F)cc2)CC1,mutagenic call,[4],inactive; negative
same,mutagenic call,"Test System: AMES SALMONELLA TYPHIMURIUM, Strain/Indicator: TA98, Metabolic Activation: RAT LIVER S-9, PHENOBARBITAL AND 5,6-BENZOFLAVONE, Method: PREINCUBATION",inactive; negative
same,mutagenic call,[5],inactive; negative
same,mutagenic call,"Test System: AMES SALMONELLA TYPHIMURIUM, Strain/Indicator: TA100, Metabolic Activation: RAT LIVER S-9, PHENOBARBITAL AND 5,6-BENZOFLAVONE, Method: PREINCUBATION",inactive; negative
same,mutagenic call,[6],inactive; negative
same,mutagenic call,"Test System: AMES SALMONELLA TYPHIMURIUM, Strain/Indicator: TA1535, Metabolic Activation: RAT LIVER S-9, PHENOBARBITAL AND 5,6-BENZOFLAVONE, Method: PREINCUBATION",inactive; negative
same,mutagenic call,[7],inactive; negative
same,mutagenic call,"Test System: AMES SALMONELLA TYPHIMURIUM, Strain/Indicator: TA1537, Metabolic Activation: RAT LIVER S-9, PHENOBARBITAL AND 5,6-BENZOFLAVONE, Method: PREINCUBATION",inactive; negative
same,mutagenic call,"Test System: E.COLI, Strain/Indicator: WP2 UVRA, Metabolic Activation: NONE, Method: PREINCUBATION",inactive; negative
same,mutagenic call,"Test System: E.COLI, Strain/Indicator: WP2 UVRA, Metabolic Activation: RAT LIVER S-9, PHENOBARBITAL AND 5,6-BENZOFLAVONE, Method: PREINCUBATION",inactive; negative
OCC(Br)CBr (stereo unspecified),mutagenic call,"Test System: AMES SALMONELLA TYPHIMURIUM, Strain/Indicator: TA98, Metabolic Activation: HAMSTER, LIVER, S-9, AROCLOR 1254 (10%), Method: PREINCUBATION",active; positive
same,mutagenic call,[4],active; positive
same,mutagenic call,"Test System: AMES SALMONELLA TYPHIMURIUM, Strain/Indicator: TA98, Metabolic Activation: RAT, LIVER, S-9, AROCLOR 1254 (10%), Method: PREINCUBATION",active; positive
same,mutagenic call,"Test System: AMES SALMONELLA TYPHIMURIUM, Strain/Indicator: TA100, Metabolic Activation: HAMSTER, LIVER, S-9, AROCLOR 1254 (10%), Method: PREINCUBATION",active; positive
same,mutagenic call,[5],active; positive
same,mutagenic call,"Test System: AMES SALMONELLA TYPHIMURIUM, Strain/Indicator: TA100, Metabolic Activation: RAT, LIVER, S-9, AROCLOR 1254 (10%), Method: PREINCUBATION",active; positive
same,mutagenic call,[3],active; positive
same,mutagenic call,"Test System: AMES SALMONELLA TYPHIMURIUM, Strain/Indicator: TA102, Metabolic Activation: S-9, Method: STANDARD PLATE",active; positive
same,mutagenic call,"Test System: AMES SALMONELLA TYPHIMURIUM, Strain/Indicator: TA1535, Metabolic Activation: HAMSTER, LIVER, S-9, AROCLOR 1254 (10%), Method: PREINCUBATION",active; positive
same,mutagenic call,[6],active; positive
same,mutagenic call,"Test System: AMES SALMONELLA TYPHIMURIUM, Strain/Indicator: TA1535, Metabolic Activation: RAT, LIVER, S-9, AROCLOR 1254 (10%), Method: PREINCUBATION",active; positive
same,mutagenic call,"Test System: AMES SALMONELLA TYPHIMURIUM, Strain/Indicator: TA1535, Metabolic Activation: RAT, LIVER, S-9, AROCLOR 1254, Method: STANDARD PLATE",active; positive
same,mutagenic call,"Test System: AMES SALMONELLA TYPHIMURIUM, Strain/Indicator: TA1537, Metabolic Activation: HAMSTER, LIVER, S-9, AROCLOR 1254 (10%), Method: PREINCUBATION",inactive; negative
same,mutagenic call,[7],inactive; negative
same,mutagenic call,"Test System: AMES SALMONELLA TYPHIMURIUM, Strain/Indicator: TA1537, Metabolic Activation: RAT, LIVER, S-9, AROCLOR 1254 (10%), Method: PREINCUBATION",inactive; negative
same,mutagenic call,"Test System: AMES SALMONELLA TYPHIMURIUM, Strain/Indicator: TA2638, Metabolic Activation: S-9, Method: STANDARD PLATE",active; positive
same,mutagenic call,"Test System: E. COLI, Strain/Indicator: WP2 (PKM101), Metabolic Activation: S-9, Method: STANDARD PLATE",active; positive
same,mutagenic call,"Test System: E. COLI, Strain/Indicator: WP2 UVRA (PKM101), Metabolic Activation: S-9, Method: STANDARD PLATE",active; positive
same,mutagenic call,"Test System: MOUSE LYMPHOMA, Strain/Indicator: L5178Y (TK+/TK-), Metabolic Activation: NONE, Method: SUSPENSION/PLATE",active; positive
Fc1cnc2cccc(F)c2c1,mutagenic call,"Test System: AMES SALMONELLA TYPHIMURIUM, Strain/Indicator: TA100, Metabolic Activation: RAT, LIVER, S-9, PHENOBARBITAL AND 5,6-BENZOFLAVONE, Method: PREINCUBATION",inactive; negative
COc1cc(OC)c(Cl)c(-n2c(-c3ccccc3)cc(=O)c(C)c2-c2ccc(F)cc2)c1,mutagenic call,[4],inactive; negative
same,mutagenic call,"Test System: AMES SALMONELLA TYPHIMURIUM, Strain/Indicator: TA98, Metabolic Activation: S-9, Method: PREINCUBATION",inactive; negative
same,mutagenic call,[5],inactive; negative
same,mutagenic call,"Test System: AMES SALMONELLA TYPHIMURIUM, Strain/Indicator: TA100, Metabolic Activation: S-9, Method: PREINCUBATION",inactive; negative
same,mutagenic call,"Test System: AMES SALMONELLA TYPHIMURIUM, Strain/Indicator: TA102, Metabolic Activation: NONE, Method: PREINCUBATION",inactive; negative
same,mutagenic call,"Test System: AMES SALMONELLA TYPHIMURIUM, Strain/Indicator: TA102, Metabolic Activation: S-9, Method: PREINCUBATION",inactive; negative
same,mutagenic call,[6],inactive; negative
same,mutagenic call,"Test System: AMES SALMONELLA TYPHIMURIUM, Strain/Indicator: TA1535, Metabolic Activation: S-9, Method: PREINCUBATION",inactive; negative
same,mutagenic call,[7],inactive; negative
same,mutagenic call,"Test System: AMES SALMONELLA TYPHIMURIUM, Strain/Indicator: TA1537, Metabolic Activation: S-9, Method: PREINCUBATION",inactive; negative
same,mutagenic call,"Test System: E. COLI, Strain/Indicator: WP2 UVRA, Metabolic Activation: NONE, Method: PREINCUBATION",inactive; negative
same,mutagenic call,"Test System: E. COLI, Strain/Indicator: WP2 UVRA, Metabolic Activation: S-9, Method: PREINCUBATION",inactive; negative
Nc1ccc(-c2ccc(-c3ccc(N)cc3)cc2)cc1,mutagenic call,"Test System: AMES SALMONELLA TYPHIMURIUM, Strain/Indicator: TA1538, Metabolic Activation: NONE, Method: STANDARD PLATE",active; positive
same,mutagenic call,"Test System: AMES SALMONELLA TYPHIMURIUM, Strain/Indicator: TA1538, Metabolic Activation: RAT, LIVER, S-9, AROCLOR 1254, Method: STANDARD PLATE",active; positive
same,mutagenic call,"Test System: CHINESE HAMSTER V-79, Strain/Indicator: V-79/6-THIOGUANINE, Metabolic Activation: NONE, Method: SUSPENSION/PLATE",active; positive
same,mutagenic call,"Test System: CHINESE HAMSTER V-79, Strain/Indicator: V-79/6-THIOGUANINE, Metabolic Activation: RAT, LIVER, S-9, AROCLOR 1254, Method: SUSPENSION/PLATE",inactive; negative
same,mutagenic call,"Test System: CHINESE HAMSTER V-79, Strain/Indicator: V-79/6-THIOGUANINE, Metabolic Activation: RAT, LIVER, S-9, PHENOBARBITAL AND BETA-NAPHTHOFLAVONE, Method: SUSPENSION/PLATE",inactive; negative

# Source: PubChem BioAssay AID1259407 (Chemical Carcinogenesis Research Information System (CCRIS), 2018)
